Molecules are shown by their SMILES. Where two headings read alike, the source gives them in different places. A value given as a limit tells only on which side of the number the result lay.

For data set [1], the target named is T1, S1P5 (Homo sapiens, UniProt Q9H228).
T1 construct: Tango fusion (own knowledge: protease cleavage site plus GAL4-VP16 transcription factor at the receptor's C-terminus); host or cells: U2OS (Tango -bla)
Briefly: Specificity over other S1P receptors: S1P5-bla TANGO U2OS assay. The format is cell-based. To be noted: read-out: S1P5 agonist value (EC50). The protocol: (§1) Cells were seeded into 384-well black wall/clear bottom plates at 10^4 cells/well/19.5 μl assay media (DMEM-phenol free, 0.5% charcoal/dextran stripped serum, 2 mM glutamine, 0.1 mM NEAA, 1 mM Na-Pyruvate, 25 mM Hepes) and incubated for 18 hrs at 37° C. in 5% CO2. Dose response curves (10-point) were generated in 10 mM Hepes, 0.1% Pluronic F127, in the presence of Forskolin. Cells were treated with 0.5 μl compound in the presence of 2 μM Forskolin for 4 hrs at 37° C. The FRET-based β-lactamase fluorescent substrate (LiveBLAzer™-FRET B/G Loading Kit CC4-AM; Invitrogen) was prepared according to manufacturer's directions, and incubated with cells for 2 hrs at room temperature. Plates were read at Ex:410/Em:458 and Ex:410/Em:522, and the response ratio determined. Data was analyzed by non-linear regression to determine the EC50 for inhibition of Forskolin induced cAMP.
(§2) To assess compound specificity on other S1P receptors the following cell lines were used: S1P2 CRE-bla CHOK1, S1P3-Gα15 NFAT-bla HEK293T (Invitrogen), S1P4-bla TANGO U2OS (Invitrogen), S1P5-bla TANGO U2OS (Invitrogen). The same assay set up for S1P1 was used but without Forskolin. S1P4 and S1P5 assays were performed in FreeStyle Expression medium (Invitrogen). S1P5 cells were incubated for 48 hrs in prior to treatment with compound.

Data set [2] concerns the target T2, S1P2 (Homo sapiens, UniProt O95136).
T2 construct: expressed in transfected cells; host or cells: CRE-bla CHOK1
The experiment in a line: Specificity over other S1P receptors: S1P2 CRE-bla CHOK1 reporter assay. Type of data set: cell-based. The note with it: S1P2 CRE-bla CHOK1, without Forskolin; read-out: S1P2 agonist value (EC50). The protocol:
as §1, §2
A general note: In a reporter assay the amount or activity of a reporter protein is the signal.

Data set [3] has as its target T3, S1P4 (Homo sapiens, UniProt O95977).
T3 construct: Tango fusion (own knowledge: protease cleavage site plus GAL4-VP16 transcription factor at the receptor's C-terminus); host or cells: U2OS (Tango -bla)
T3 sequence (O95977 1-384): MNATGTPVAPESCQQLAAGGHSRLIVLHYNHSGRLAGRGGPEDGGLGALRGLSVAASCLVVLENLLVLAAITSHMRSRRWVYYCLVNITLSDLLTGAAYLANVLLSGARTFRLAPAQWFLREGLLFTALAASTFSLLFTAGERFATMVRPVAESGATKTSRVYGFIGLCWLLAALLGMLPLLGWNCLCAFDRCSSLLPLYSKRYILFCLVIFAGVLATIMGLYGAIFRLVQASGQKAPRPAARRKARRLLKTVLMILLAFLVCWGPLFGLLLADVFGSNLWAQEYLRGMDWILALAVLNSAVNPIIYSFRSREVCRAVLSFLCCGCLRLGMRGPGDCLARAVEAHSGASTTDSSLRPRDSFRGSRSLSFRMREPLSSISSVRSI
The experiment in a line: Specificity over other S1P receptors: S1P4-bla TANGO U2OS assay. Type of data set: cell-based. The note with it: read-out: S1P4 agonist value (EC50). As for the experimental part: as §1, §2

The target in data set [4] is T4, S1P3 (Homo sapiens, UniProt Q99500).
T4 construct: host or cells: NFAT-bla HEK293T
T4 sequence (Q99500 whole entry): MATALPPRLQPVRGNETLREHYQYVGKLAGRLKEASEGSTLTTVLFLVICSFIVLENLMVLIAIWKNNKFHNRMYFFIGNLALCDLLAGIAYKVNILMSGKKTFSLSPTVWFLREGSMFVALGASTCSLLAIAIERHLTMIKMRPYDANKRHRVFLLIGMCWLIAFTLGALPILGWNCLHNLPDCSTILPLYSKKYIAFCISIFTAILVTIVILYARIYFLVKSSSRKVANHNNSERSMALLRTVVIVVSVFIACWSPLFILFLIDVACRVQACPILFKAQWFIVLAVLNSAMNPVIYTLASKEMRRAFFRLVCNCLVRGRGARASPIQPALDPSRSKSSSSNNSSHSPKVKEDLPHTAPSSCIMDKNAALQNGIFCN
Briefly: Specificity over other S1P receptors: S1P3-Gα15 NFAT-bla HEK293T reporter assay. To be noted: without Forskolin, read-out: S1P3 agonist value (EC50). Type of data set: cell-based. As for the experimental part: as §1, §2

Data set [5] has as its target S1P1/EDG1 (Homo sapiens, UniProt P21453). Briefly: S1P1 CRE-bla CHOK1 reporter assay, inhibition of Forskolin induced cAMP. The format is cell-based. The method in brief:
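Read-out is a FRET β-lactamase substrate (2 h, room temperature) after 4 h, 37 °C compound treatment under 2 μM Forskolin in stable S1P1-transfected CRE-bla CHO-K1 cells. Ten-point curves; non-linear regression gives EC50 for inhibition of Forskolin-stimulated cAMP.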

Data set [6] deals with peripheral T-cell counts. The experiment in a line: Lymphopenia in rats, 3-5 day multiple dose regimen. Type of data set: in vivo, rat. The note with it: female rats, oral, 24 h after final dose of a 3-5 day multiple dose regimen. The protocol:
In rats: Female rats (Simonsen Laboratories, Gilroy Calif.) were housed in an ALAAC accredited facility and the research was approved by the facilities Institutional Animal Care and Use Committee (IACUC). The animals were acclimated to the laboratory for at least 5 days prior to initiation of experiments. Rats (n=3/compound/time-point) were dosed by oral gavage with 1 mg/kg compound formulated in a vehicle consisting of 5% DMS0/5% Tween 20 and 90% 0.1N HCL. Control rats were dosed PO with the vehicle. Whole blood was collected from isoflurane anesthetized rats via the retro-orbital sinus and terminal samples were collected by cardiac puncture into EDTA. Whole blood was incubated with mouse anti-rat CD32 (BD #550271), PE-mouse anti-rat CD45R/B220 (BD #554881), PECy5-mouse anti-rat CD4 (BD #554839), and APC-mouse anti-rat CD8a (eBioscience #17-0084) for 30 minutes on ice. Red blood cells were lysed using BD Pharm Lyse Lysing buffer (#555899) and white blood cells were analyzed with a BD FACSArray. Lymphopenia was expressed as the % of white blood cells that were CD4 or CD8 positive T cells. The overall lymphopenia response over 24 h was estimated by calculating the area under the effect curve (AUEC) using the linear trapezoidal rule.
(§3) The compounds listed in Table 6 were formulated as suspensions in a vehicle consisting of 0.5% carboxymethyl cellulose (Acros Organics) in purified water (pH adjusted to ˜2.2 with hydrochloric acid). The same formulation was used in the rat lymphopenia and toxicology studies described below. The concentration of each compound in suspension was verified to be within ±10% of the target concentration by HPLC-UV.
Prior to the conduct of toxicology studies, the effect of three to five daily doses of each compound on peripheral T-cell counts of female rats was determined (see lymphopenia measurements in rats above). In these lymphopenia studies, blood samples were collected onto EDTA at intervals after the final study dose. The collection times were not identical for each study, however, all studies included a sample collected 24 hours after the final dose. The lymphopenia data was used as a biomarker to select equally pharmacologically active doses for the subsequent toxicology study. […] The high dose in the toxicology study represented a ≧20-fold increment over the low dose.
(§4) The dose producing a 10% increase in lung to body weight ratio was interpolated from a plot of dose versus lung to body weight. The lymphopenia response was measured 24 hours following the final dose of a 3-5 day multiple dose regimen.

A short description of data set [7]: Evaluation of therapeutic index in rats: 5 or 14 day toxicology study, lung to body weight ratio. Type of data set: in vivo, Sprague-Dawley rat. To be noted: for Dose Resulting in 10% increase in lung weight: rats, oral, 5 or 14 consecutive days, interpolated from dose versus lung to body weight; for TI 5 days: 5 day toxicology study in rats. As for the experimental part: All studies were conducted in non-fasted male and female Sprague-Dawely rats (Simonsen Laboratories). Rats were housed in an AAALAC accredited facility and the research was approved by the facilities Institutional Animal Care and Use Committee (IACUC). The animals were acclimated to the laboratory for at least 5 days prior to initiation of experiments.
as §3
In the toxicology studies, three male and three female rats per group were assigned to dosing groups using body weight based randomization. A control group in each study received vehicle. All animals were dosed orally by gavage on 5 or 14-consecutive days at a dose volume of 5 mL/kg/day. The animals were observed daily for any manifestations of adverse effect. Twenty-four hours after the final study dose, the rats were anesthetized with isoflurane and a terminal blood sample was taken by intra-cardiac puncture for hematology and clinical chemistry evaluation (IDEXX Laboratories, Sacramento, Calif.). The lungs with trachea were collected, weighed, and then prepared for histology by perfusion with 10% neutral buffered formalin via the trachea. The internally fixed lungs were then preserved in 10% neutral buffered formalin and submitted for histological examination (IDEXX).
The dose of each compound resulting in a 10% increase in the lung to terminal body weight ratio was estimated for each compound by linear interpolation. The therapeutic index was estimated as the ratio of the dose producing 10% lung weight increase to the dose producing 50% T-Cell depletion.
as §4

[8] abbreviates: S1P1 CRE-bla CHOK1, with Forskolin, read-out: S1P1 agonist value (EC50).
[9] abbreviates: agonist activity range, S1P1 CRE-bla CHOK1, 2 μM Forskolin, read-out: S1P1 ACTIVITY
[10] abbreviates: therapeutic index: dose producing 10% lung weight increase / dose producing 50% T-cell depletion.

T1 sequence (Q9H228 whole entry, the tested form may be a part): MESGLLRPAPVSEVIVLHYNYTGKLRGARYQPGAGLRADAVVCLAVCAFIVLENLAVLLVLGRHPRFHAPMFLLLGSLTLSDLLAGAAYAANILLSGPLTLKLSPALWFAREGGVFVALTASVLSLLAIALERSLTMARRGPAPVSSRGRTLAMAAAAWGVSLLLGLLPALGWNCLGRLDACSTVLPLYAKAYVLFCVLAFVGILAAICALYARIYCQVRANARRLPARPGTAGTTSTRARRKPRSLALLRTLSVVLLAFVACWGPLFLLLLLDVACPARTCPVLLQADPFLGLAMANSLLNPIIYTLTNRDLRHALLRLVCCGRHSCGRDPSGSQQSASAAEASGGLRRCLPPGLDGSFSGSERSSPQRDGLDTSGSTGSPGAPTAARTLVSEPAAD
Sequence of S1P1/EDG1 (P21453 whole entry): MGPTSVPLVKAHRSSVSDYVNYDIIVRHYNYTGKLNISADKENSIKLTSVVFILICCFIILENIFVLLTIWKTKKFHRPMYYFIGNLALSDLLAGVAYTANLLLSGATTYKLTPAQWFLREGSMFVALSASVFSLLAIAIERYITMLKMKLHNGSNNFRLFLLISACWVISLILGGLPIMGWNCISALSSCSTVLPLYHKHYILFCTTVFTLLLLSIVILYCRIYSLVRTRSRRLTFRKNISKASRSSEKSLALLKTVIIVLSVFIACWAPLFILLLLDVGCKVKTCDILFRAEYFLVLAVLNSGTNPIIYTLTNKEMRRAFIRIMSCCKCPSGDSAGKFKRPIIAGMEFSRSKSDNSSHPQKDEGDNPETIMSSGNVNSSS
T2 sequence (O95136 whole entry, species assumed): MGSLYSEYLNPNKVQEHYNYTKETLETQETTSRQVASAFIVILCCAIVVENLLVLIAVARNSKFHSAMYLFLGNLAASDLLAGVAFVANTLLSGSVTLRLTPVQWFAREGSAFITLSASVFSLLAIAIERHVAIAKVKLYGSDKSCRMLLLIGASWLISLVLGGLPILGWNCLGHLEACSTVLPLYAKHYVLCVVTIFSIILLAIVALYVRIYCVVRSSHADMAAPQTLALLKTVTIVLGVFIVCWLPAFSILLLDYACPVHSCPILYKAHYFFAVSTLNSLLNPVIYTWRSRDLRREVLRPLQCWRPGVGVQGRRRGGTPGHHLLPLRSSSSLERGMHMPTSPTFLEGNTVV

Turning to `CCOc1ccc(-c2nc(-c3cccc4c3CCC4NCCO)no2)cc1OCC` (racemic) [Compound 253, (+/−)-2-((4-(5-(3,4,diethoxyphenyl)-1,2,4-oxadiazol-3-yl)-2,3-dihydro-1H-inden-1-yl)amino)ethanol, reference compound], the EC50 in data set [1] is 136 nM; in data set [2] it was greater than 1000 nM; in data set [3] it was 3250 nM; in data set [4], 4300 nM; in data set [5] (setting [8]), 2.88 nM; in data set [5] (setting [9]), 0.5 to 5 nM.

For the molecule `COCCS(=O)(=O)N[C@@H]1CCc2c(-c3noc(-c4ccc(OC(C)C)c(C#N)c4)n3)cccc21` [Compound 163, (R)-N-(4-(5-(3 cyano-4-isopropoxyphenyl)-1,2,4-oxadiazol-3-yl)-2,3-dihydro-1H-inden-1-yl)-2-methoxyethanesulfonamide], the EC50 in data set [1] was 50 nM; in data set [2] it was greater than 10000 nM; in data set [3], greater than 10000 nM; in data set [4], greater than 10000 nM; in data set [5] (setting [8]) it was 0.09 nM; in data set [5] (setting [9]) it was 0.05 to 0.5 nM. In addition, the “Dose Producing 50% lymphopenia” value in data set [6] was 0.07 mg/kg. Also, the “Dose Resulting in 10% increase in lung weight” value (“Dose Resulting in 10% increase” below) in data set [7] is listed as 2.1 mg/kg. The “TI 14 days” value in data set [7] (therapeutic index: dose producing 10% lung weight increase / dose producing 50% T-cell depletion, 14 day toxicology study in rats) is recorded as 30.

Take `COCCS(=O)(=O)N[C@H]1CCc2c(-c3noc(-c4ccc(OC(C)C)c(C#N)c4)n3)cccc21` [Compound 164, (S)-N-(4-(5-(3-cyano-4-isopropoxyphenyl)-1,2,4-oxadiazol-3-yl)-2,3-dihydro-1H-inden-1-yl)-2-methoxyethanesulfonamide]: the EC50 is 174 nM in data set [1]; greater than 10000 nM in data set [2]; greater than 10000 nM in data set [3]; greater than 10000 nM in data set [4]; 0.36 nM in data set [5] (setting [8]); 0.05 to 0.5 nM in data set [5] (setting [9]). The “Dose Producing 50% lymphopenia” value in data set [6] was found to be 0.25 mg/kg. Also, in data set [7], the “Dose Resulting in 10% increase” value is given as 5.0 mg/kg. For the same molecule, the “TI 5 days” value in data set [7] (setting [10]) worked out at 20.

Take `CC(C)Oc1ccc(-c2nc(-c3cccc4c3CC[C@H]4NS(=O)(=O)CCO)no2)cc1C#N` [Compound 186, (R)-N-(4-(5-(3 cyano-4-isopropoxyphenyl)-1,2,4-oxadiazol-3-yl)-2,3-dihydro-1H-inden-1-yl)-2-hydroxyethanesulfonamide]: the EC50 is 32.3 nM in data set [1]; 1570 nM in data set [2]; 1210 nM in data set [3]; greater than 10000 nM in data set [4]; 0.05 nM in data set [5] (setting [8]); 0.05 to 0.5 nM in data set [5] (setting [9]). The “Dose Producing 50% lymphopenia” value in data set [6] came out at 0.07 mg/kg. For the same molecule, the “Dose Resulting in 10% increase” value in data set [7] is 1.1 mg/kg. The “TI 5 days” value in data set [7] (setting [10]) is listed as 16.

`CC(C)Oc1ccc(-c2nc(-c3cccc4c3CC[C@@H]4NS(=O)(=O)CCO)no2)cc1C#N` [Compound 187, (S)-N-(4-(5-(3-cyano-4-isopropoxyphenyl)-1,2,4-oxadiazol-3-yl)-2,3-dihydro-1H-inden-1-yl)-2-hydroxyethanesulfonamide]: the EC50 in data set [1] was 57.1 nM; in data set [2], greater than 10000 nM; in data set [3], greater than 10000 nM; in data set [4], greater than 10000 nM; in data set [5] (setting [8]) it was 0.1 nM; in data set [5] (setting [9]) it was 0.05 to 0.5 nM. The “Dose Producing 50% lymphopenia” value in data set [6] came out at 0.50 mg/kg. For the same molecule, in data set [7], the “Dose Resulting in 10% increase” value turned out to be 5.0 mg/kg. Also, in data set [7] (setting [10]), the “TI 5 days” value came out at 10.

As to `CC(C)Oc1ccc(-c2nc(-c3cccc4c3CC[C@H]4NC(=O)N3CC(O)C3)no2)cc1C#N` [Compound 234, (R)-N-(4-(5-(3 cyano-4-isopropoxyphenyl)-1,2,4-oxadiazol-3-yl)-2,3-dihydro-1H-inden-1-yl)-3-hydroxyazetidine-1-carboxamide], the EC50 was 76.1 nM in data set [1]; greater than 10000 nM in data set [2]; 739 nM in data set [3]; greater than 10000 nM in data set [4]; 0.1 nM in data set [5] (setting [8]); 0.05 to 0.5 nM in data set [5] (setting [9]). For the same molecule, in data set [6], the “Dose Producing 50% lymphopenia” value is 0.90 mg/kg. The “Dose Resulting in 10% increase” value in data set [7] worked out at 21.3 mg/kg. In addition, the “TI 5 days” value in data set [7] (setting [10]) is 24.

Turning to `CC(C)Oc1ccc(-c2nc(-c3cccc4c3CC[C@@H]4NC(=O)N3CC(O)C3)no2)cc1C#N` [Compound 235], the EC50 in data set [1] was 39.8 nM; in data set [2], greater than 10000 nM; in data set [3], greater than 10000 nM; in data set [4], greater than 10000 nM; in data set [5] (setting [8]), 0.1 nM; in data set [5] (setting [9]), 0.05 to 0.5 nM. Further, the “Dose Producing 50% lymphopenia” value in data set [6] came out at 2.00 mg/kg. The “Dose Resulting in 10% increase” value in data set [7] amounted to 11.3 mg/kg. Also, in data set [7] (setting [10]), the “TI 5 days” value amounted to 6.

Values taken from patent publication US9388147B2 (Receptos, Inc., priority 2009, dated 2016).
